Experimental data: PMC6413339 (EBioMedicine, 2019)
Where two headings read alike, the source gives them in different places.

Legend:
[1] = tested on: MOLM-14 (ITD, D835Y) cells; assay: Antiproliferative activity (CellTitre-Blue, 72 h); assay type: cell-based, human; conditions: 72 h incubation, triplicates, read-out: IC50 (mean ±SD, nM) MOLM-14 (ITD, D835Y)
Protocol: (§1) Cells were seeded into 96-well tissue culture-treated plates at 2.0 × 10^4 cells/mL for up to 24 h. DMSO stock solutions of compounds were serially diluted first in DMSO and subsequently into RPMI before being added to the cell cultures in triplicates, with 10 μM being the highest tested concentration. The plates were incubated for 72 h as above. The CellTitre-Blue assay (Promega, Madison WI) was then added to the cultures and incubated a further 4 h before the fluorescence measured following the manufacturers recommendations. The fluorescence data from compounds were normalized to that DMSO and the resulting data fitted to a non-linear regression equation to obtain IC50 using GraphPad Prism 5.0 Software (La Jolla, CA, USA).

[2] = tested on: MOLM-14 (ITD, F691 L) cells; assay: Antiproliferative activity (CellTitre-Blue, 72 h); assay type: cell-based, human; conditions: 72 h incubation, triplicates; listed as 7 (HSN431); read-out: IC50 (mean ±SD, nM) MOLM-14 (ITD, F691 L)
Protocol: as §1

[3] = tested on: MOLM-14 cells; assay: Antiproliferative activity (CellTitre-Blue, 72 h); assay type: cell-based, human; conditions: Homo sapiens, MOLM-14; 72 h incubation, triplicates; read-out: IC50 (mean ±SD, nM) MOLM-14
Protocol: as §1

[4] = tested on: MV4–11 cells; assay: Antiproliferative activity (CellTitre-Blue, 72 h); assay type: cell-based, human; conditions: Homo sapiens, MV4-11, 72 h, 72 h incubation, triplicates; read-out: IC50 (mean ±SD, nM) MV4–11
Protocol: as §1

[5] = molecular target: T1, FLT3 (Homo sapiens, UniProt P36888); assay: Cell-free kinase assay, single dose (Reaction Biology, ADP-Glo); assay type: biochemical; conditions: inhibitor 500 nM; 100 μM ATP; average of duplicate
T1 construct: purchased Invitrogen PV3182
T1 sequence (P36888 564-993 limits assumed): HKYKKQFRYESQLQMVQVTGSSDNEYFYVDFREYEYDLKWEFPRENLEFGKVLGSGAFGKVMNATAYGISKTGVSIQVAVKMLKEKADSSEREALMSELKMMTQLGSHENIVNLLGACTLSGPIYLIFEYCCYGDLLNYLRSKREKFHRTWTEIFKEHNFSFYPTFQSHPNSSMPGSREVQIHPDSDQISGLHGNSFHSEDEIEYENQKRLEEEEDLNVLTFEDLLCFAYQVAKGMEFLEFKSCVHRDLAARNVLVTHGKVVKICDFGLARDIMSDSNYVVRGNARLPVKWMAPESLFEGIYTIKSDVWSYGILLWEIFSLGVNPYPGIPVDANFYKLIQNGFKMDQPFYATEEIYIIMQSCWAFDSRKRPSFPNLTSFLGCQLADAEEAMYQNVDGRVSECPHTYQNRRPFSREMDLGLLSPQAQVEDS
Protocol: Cell-free kinase activity assays were performed at Reaction Biology Corporation. […] DMSO was used as control. […] Experiments were performed in duplicates. The concentrations of kinases and substrates used in the assays are indicated on Table S1. Kinase activity was quantified using the ADP-Glo™ Kinase Assay System (Promega, Madison, WI) following the manufacturer's recommendations.

[6] = molecular target: T2, Src (Homo sapiens, UniProt P12931); assay: Cell-free kinase assay (Reaction Biology, ADP-Glo); assay type: biochemical
T2 construct: purchased Invitrogen PR4336E
Protocol: (§2) Cell-free kinase activity assays were performed at Reaction Biology Corporation. Briefly, kinases were incubated with substrates, 100 μM ATP and a 3-fold serial dilution of compounds starting at 1 μM. DMSO was used as control. […] Experiments were performed in duplicates. The concentrations of kinases and substrates used in the assays are indicated on Table S1. Kinase activity was quantified using the ADP-Glo™ Kinase Assay System (Promega, Madison, WI) following the manufacturer's recommendations.

[7] = molecular target: FLT3-ITD (Homo sapiens, UniProt P36888, ITD); assay: Cell-free kinase assay, dose-response (Reaction Biology, ADP-Glo); assay type: biochemical
Protocol: as §2

[8] = tested on: AML cell lines (MV4–11, MOLM-14, MOLM-14 (ITD, D835Y), MOLM-14 (ITD, F691 L)); assay: Cell cycle analysis (PI flow cytometry); assay type: cell-based, human; conditions: 24 h and 48 h
Protocol: (§3) Cells seeded into T-25 flasks at a density of 8.0 × 10^4 cells/mL and incubated overnight at 37 °C with 5% CO2. Each treatment was performed in triplicates, with three flasks per treatment each with enough volume for both assays at the applicable time points. Following the overnight incubation, cells were treated with either DMSO or different concentrations of HSN431 (as indicated) in triplicates, mixed well and incubated. At each time point (24 and 48 h), aliquots of 1.5 mL of cells were collected from each flask and placed into labeled FACS tubes (for Annexin V apoptosis) or labeled 15 cc conical tubes (for cell cycle) and centrifuged at 300 × g for 5 min. Cells were washed twice with 1× PBS.
For cell cycle, cell pellets were resuspended in 0.5 mL PBS in 15 cc conical tubes and fixed with 4.5 mL of 70% ethanol. Fixed cells were stored at −20 °C until analysis with the Propidium Iodide (PI) Flow Cytometry Kit (cat. no. ab139418, Abcam, Cambridge, MA, USA). Samples were analyzed in duplicates on a FACSCanto II flow cytometer (BD Bioscience, San Jose, CA, USA) and cell cycle distribution was analyzed using the Watson algorithm analysis in FlowJo software (Flowjo, LLC, Ashland, OR).

[9] = tested on: AML cell lines (MV4–11, MOLM-14, MOLM-14 (ITD, D835Y), MOLM-14 (ITD, F691 L)); assay: Annexin V apoptosis (flow cytometry); assay type: cell-based, human; conditions: 24 h and 48 h; dose- and time-dependent
Protocol: as §3
For Annexin V apoptosis, cell pellets were resuspended in 100 μL of 1× assay buffer and the binding of Annexin V and PI were measured by staining cells following the BD Pharmingen™ FITC Annexin V Apoptosis Detection Kit I (cat. no. 556547, BD Biosciences, San Jose, CA, USA) recommendations. Flow cytometry was performed on a a FACSCanto II flow cytometer (BD Bioscience, San Jose, CA, USA) and data analyzed using the FlowJo software (Flowjo, LLC, Ashland, OR).

T2 sequence (P12931 whole entry): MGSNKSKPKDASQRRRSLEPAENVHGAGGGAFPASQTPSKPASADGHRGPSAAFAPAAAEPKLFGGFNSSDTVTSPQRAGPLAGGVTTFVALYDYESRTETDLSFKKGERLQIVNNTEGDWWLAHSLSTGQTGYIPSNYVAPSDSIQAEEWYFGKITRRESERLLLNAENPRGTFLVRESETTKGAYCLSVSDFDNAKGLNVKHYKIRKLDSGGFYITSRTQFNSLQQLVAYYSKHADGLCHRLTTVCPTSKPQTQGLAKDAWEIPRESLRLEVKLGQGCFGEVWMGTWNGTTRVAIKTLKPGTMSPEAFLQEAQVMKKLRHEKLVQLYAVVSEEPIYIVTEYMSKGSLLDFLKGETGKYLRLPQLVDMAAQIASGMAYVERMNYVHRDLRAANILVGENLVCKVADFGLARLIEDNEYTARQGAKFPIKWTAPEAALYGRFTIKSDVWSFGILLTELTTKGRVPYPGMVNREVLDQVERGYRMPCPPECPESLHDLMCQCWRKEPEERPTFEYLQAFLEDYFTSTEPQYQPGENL

Which results are given for `Cc1ncc(C(=O)Nc2ccc(CN3CCN(C)CC3)c(C(F)(F)F)c2)cc1C#Cc1c(N)ncc2ccc(F)cc12` [Compound 7]?
IC50 ([1]; listed as 7 (HSN431)): 16.6 ± 5.8 nM; IC50 ([1]; Homo sapiens, MOLM-14, 72 h): ≤ 15 nM; IC50 [2]: 3.3 ± 0.3 nM; IC50 [3]: 0.5 ± 0.01 nM; IC50 [4]: 0.5 ± 0.01 nM; inhibition at 0.5 µM [5]: 97%; IC50 ([6]; Src 0.6 nM, ATP 100 μM, read-out: IC50 against Src): 12.6 nM; inhibition at 0.5 µM ([6]; inhibitor 500 nM, 100 μM ATP, average of duplicate): 98%; IC50 [7]: 12.5 nM; cells in the sub-G1 phase [8]: accumulation; distribution of cells in the S phase [8]: decreases; population of cells in the G0/G1 phase ([8]; dose- and time-dependent): increase; total apoptosis [9]: induced apoptosis
